Experimental data: paper PMC11428279, “Exploring Structure–Activity Relationships and Modes of Action of Laterocidine” (ACS Central Science, 2024)
≈ marks a conversion by molar mass, not a printed value. Like-named read-outs stand apart in the source and are kept apart here. Bridge positions count the residues as written; N and C are the ends. Square brackets hold non-standard residues; d marks the D form. Peptide text beside a SMILES is read from it. * marks the point of attachment. Octanoyl(7-Me) = CC(C)CCCCCC(=O)*; dOrn = NCCC[C@@H](N)C(=O)O; Orn = NCCC[C@H](N)C(=O)O

What was measured:
[1] = system: A. baumannii 5075 (wild type); experiment: MIC; assay type: cell-based
P. aeruginosa PAO1 [2] = experiment: MIC; assay type: cell-based; settings: polymyxin-susceptible reference strain
female Swiss mice = experiment: Acute toxicity in mice (maximum tolerable dose); assay type: in vivo; settings: intravenous bolus via lateral tail vein, free base, N = 3
Description: (§1) All animal studies were approved by the Monash University Animal Ethics Committee and involved female Swiss mice (22–28 g, 7-week-old) housed in microisolators within a PC2 animal laboratory. Mice were kept under a 12/12 h dark/light cycle at 20–24 °C and 50–70% ambient humidity.
For the acute toxicity studies, peptide 11 and laterocidine solutions were prepared in 0.9% saline and stored at 4 °C before use. All mice were administered an intravenous bolus of one peptide (mg/kg free base) via a lateral tail vein (≤0.1 mL). Following the injection, mice were released back into their respective home cages and individually monitored for 24 h for signs of clinical toxicity. Mice displaying any signs of toxicity were humanely euthanized according to the recommended Euthanasia/Humane Experimental End point Criteria.

[3] = system: P. aeruginosa FADDI-PA070; experiment: Neutropenic murine bloodstream infection model; assay type: in vivo, P. aeruginosa in mice; settings: 8 mg/kg iv (free base) 2 h postinoculation, neutropenic mice, 4 h time point, N = 3, mean
Description: as §1
The neutropenic bloodstream infection model was undertaken as previously described.[39] Mice were rendered neutropenic through intraperitoneal injections of cyclophosphamide administered 4 days (150 mg/kg) and 1 day (100 mg/kg) prior to inoculation. Bloodstream infection was established by administering a 50 μL bolus of early log-phase bacterial suspension (4 × 10^8 CFU/mL). Laterocidine, peptide 11, and polymyxin B solutions were prepared in sterile saline at a concentration of 1 mg/mL (free base). Two hours postinoculation, mice (n = 3) were injected intravenously with either polymyxin B at 4 mg/kg (free base), peptide 11 at 8 mg/kg (free base), laterocidine at 8 mg/kg (free base), or saline (control mice). Blood was collected immediately after (0 h) and 4 h after drug administration, serially diluted with sterile saline, and appropriately diluted samples manually plated on nutrient agar prior to overnight incubation at 37 °C. Colonies were counted manually and the bacterial load (log10 CFU/mL) in the blood of each mouse calculated. In vivo efficacy was calculated as the difference between the log10 CFU/mL blood values of treated and control mice 4 h postdosing (Δlog10 CFU/mL blood = log10 [treated] CFU/mL blood–log10[control] CFU/mL blood).[54]

E. coli O111:B4 LPS = experiment: 1H NMR titration with LPS; assay type: binding; settings: 23 °C, 50 mM acetate buffer pH 4.5, 1.5 mM peptide, 16 μL of 10 mg/mL LPS
Description: NMR samples contained 0.75–2.0 mM laterocidine in a 50 mM acetate (d6) NMR buffer (90% H2O:10% D2O, pH 4.5 or ∼100% D2O, pH 4.5). Experiments were recorded on a Bruker 600 MHz NMR spectrometer equipped with a cryoprobe and Z axis gradient. 2D ^13C HSQC and 2D ^13C–^1H H2BC were recorded using gradients for coherence selection and sensitivity enhancement and additional presaturation of the solvent signal when required. 1D ^1H, 2D ^1H–^1H NOESY (with mixing times 35–200 ms), and 2D ^1H–^1H TOCSY experiments (mixing time 70 ms) used an excitation sculpting, DPFGSE sequence for water suppression.[51] Typical acquisition times for the 2D ^1H–^1H NOESY experiments were 524 ms (t2) and 40 ms (t1). For transferred LPS experiments, NMR data was recorded at 23–25 °C which was optimized for the least amide peak overlap. 2D ^1H–^1H NOESY spectra for the free peptide were also recorded at 23 °C. Spectra were processed with nmrPipe[52] or Topspin and analyzed with Xeasy[53] or NMRFAM Sparky.[54] Backbone assignments were made using the standard sequential NOE based assignment strategy using 2D ^1H–^1H TOCSY and 2D ^1H–^1H NOESY data. Side chain assignments were further aided using the 2D ^13C–^1H H2BC experiment. 1D ^1H STD experiments were recorded using excitation sculpting for water suppression. […]

A. baumannii 5075D = assay type: cell-based; settings: lacks lipid A in the outer membrane
P. aeruginosa PAO1 [4] = experiment: Flow cytometry of bacterial membrane integrity, respiration, polarity and oxidative stress; assay type: cell-based; settings: 1 h exposure
Description: The live cell impermeant fluorophore propidium iodide (PI) (Sigma-Aldrich, Castle Hill, NSW, Australia) was used to assess loss of membrane integrity (Ex/Em 488/660–690 nm) and the redox probe 5-cyano-2,3-ditolyl tetrazolium chloride (CTC) (Sigma-Aldrich, Castle Hill, NSW, Australia) used to assess loss of cellular respiration (Ex/Em 450/630 nm). […] Intracellular oxidative stress was measured using CR-G (CellROX Green) (Sigma-Aldrich, Castle Hill, NSW, Australia, Ex/Em 488/660–690 nm).[58] Appropriately diluted samples (600 μL) were stained separately with 12.5 μM PI, 2.5 mM CTC, 6 μM DiBAC, and 2.5 μM CR-G. Samples stained with both PI and DiBAC were incubated for 2 min and immediately analyzed. Samples stained with both CTC and CR-G were incubated for 45 min at RTP, and excess dye was pelleted out prior to analysis. Fluorescence intensity data were analyzed and log transformed using the NovoExpress software (V2.1, ACEA Biosciences, USA).[34]

A. baumannii 5075R = assay type: cell-based; settings: lipid A modified with phosphoethanolamine
[5] = system: Gram-negative strains of P. aeruginosa, A. baumannii, K. pneumoniae, and E. cloacae; assay type: cell-based
Description: (§2) MICs for laterocidine and its various analogues were determined by broth microdilution[49] for the following polymyxin-susceptible ATCC and clinical isolates: P. aeruginosa FADDI-PA022, FADDI-PA001, FADDI-PA025, FADDI-PA070, FADDI-PA060; A. baumannii FADDI-AB134, FADDI-AB034, FADDI-AB030, FADDI-AB174, FADDI-AB241; K. pneumoniae FADDI-KP032, FADDI-KP022, BM1, FADDI-KP065, FADDI-KP064, FADDI-KP003; and E. cloacae FADDI-EC001, FADDI-EC003, and FADDI-EC006. Experiments were performed with cation-adjusted Mueller–Hinton broth (CAMHB) in 96-well polystyrene microtiter plates. Wells were inoculated with 100 μL of bacterial suspension prepared in CAMHB (containing ∼10^6 CFU/mL) and 100 μL of CAMHB containing increasing concentrations of polymyxins (0–32 μg/mL). MIC measurements were performed in duplicate, with the MIC being the lowest concentration at which visible growth was inhibited following 18–20 h of incubation at 37 °C. Bacterial killing kinetics was investigated over 24 h as described previously.[50]

P. aeruginosa = assay type: cell-based
Description: as §2

E. cloacae = assay type: cell-based
Description: as §2

K. pneumoniae = assay type: cell-based
Description: as §2

P. aeruginosa PAO1R [6] = experiment: Static time-kill study; assay type: cell-based; settings: 8 × MIC, over 24 h
Description: as §2

P. aeruginosa PAO1 [7] = experiment: Static time-kill study; assay type: cell-based
Description: as §2

P. aeruginosa PAO1R [8] = experiment: MIC; assay type: cell-based; settings: polymyxin-resistant paired strain of PAO1
[9] = listed as Laterocidine (peptide 1)

CC[C@H](C)[C@@H]1NC(=O)[C@@H](NC(=O)[C@H](Cc2c[nH]c3ccccc23)NC(=O)[C@@H](CCCN)NC(=O)CNC(=O)[C@H](CCCN)NC(=O)[C@@H](CCCN)NC(=O)[C@@H](Cc2c[nH]c3ccccc23)NC(=O)[C@@H](Cc2ccc(O)cc2)NC(=O)[C@@H](CO)NC(=O)CCCCCC(C)C)[C@@H](C)OC(=O)CNC(=O)CNC(=O)[C@H](CC(N)=O)NC1=O [Laterocidine] ({Octanoyl(7-Me)}-[dS][dY][dW][dOrn][Orn]G[dOrn]WTINGG; ester 9-C)
MIC, A. baumannii 5075 S [1]: 8 µg/mL (≈ 4.98 µM) | MIC, P. aeruginosa PAO1 (P. aeruginosa PAO1 [2]): 8 µg/mL (≈ 4.98 µM) | maximum tolerable dose (MTD), Iv (Bolus) (female Swiss mice): 13.2 mg/kg | Bacteria load in blood ([3]; listed as Peptide 1): 16.93% | Bacteria load in blood ([3]; listed as peptide 1): 16.9% | binding affinity to LPS (line broadening in 1H NMR titration) (E. coli O111:B4 LPS): weak to moderate binding affinity | MIC, A. baumannii 5075 D (A. baumannii 5075D): 32 µg/mL (≈ 19.9 µM) | MIC, A. baumannii 5075 D (A. baumannii 5075D; [9]): > 32 µg/mL | membrane integrity (propidium iodide fluorescence) (P. aeruginosa PAO1 [4]; 1 × MIC (2 μg/mL)): no loss of membrane permeability | metabolic activity (CTC fluorescence) (P. aeruginosa PAO1 [4]; 1 × MIC (2 μg/mL)): unaffected | intracellular oxidative stress (CellROX Green) (P. aeruginosa PAO1 [4]; 1 × and 8 × MIC): increase at both 1 × and 8 × MIC | membrane potential (DiBAC fluorescence) (P. aeruginosa PAO1 [4]; 1 × and 8 × MIC): extensive loss of membrane potential at each concentration | membrane integrity (propidium iodide fluorescence) (P. aeruginosa PAO1 [4]; 8 × MIC (16 μg/mL)): substantial increase in permeability | metabolic activity (CTC fluorescence) (P. aeruginosa PAO1 [4]; 8 × MIC (16 μg/mL)): markedly reduced | MIC, A. baumannii 5075 R (A. baumannii 5075R): 32 µg/mL (≈ 19.9 µM) | MIC, A. baumannii 5075 R (A. baumannii 5075R; [9]): > 32 µg/mL | MICs against the MDR strains (range) [5]: 1 to 16 µg/mL | MICs against P. aeruginosa (range over strains) (P. aeruginosa): 4 to 8 µg/mL | MICs against E. cloacae (range over strains) (E. cloacae): 1 to 2 µg/mL | MICs against K. pneumoniae (range over strains) (K. pneumoniae): 1 to 4 µg/mL | time-kill outcome against P. aeruginosa PAO1R (P. aeruginosa PAO1R [6]): substantial regrowth occurring at all concentrations | regrowth at 24 h, P. aeruginosa PAO1 (P. aeruginosa PAO1 [7]; 4 × MIC, 24 h): ~2 log 10 CFU/mL | time-kill outcome against P. aeruginosa PAO1 (P. aeruginosa PAO1 [7]; 8 × MIC, over 24 h): bacterial eradication was achieved at 24 h | MIC, P. aeruginosa PAO1R (P. aeruginosa PAO1R [8]): 8 µg/mL (≈ 4.98 µM)
